Measurements taken from article PMC4010497, “Synthesis and Evaluation of Fluorine-Substituted Phenyl Acetate Derivatives as Ultra-Short Recovery Sedative/Hypnotic Agents” (PLoS ONE, 2014).
Read-outs that look alike come from different tables or passages of the source.

Assays:
mice [1] = assay: animal or person; assay type: in vivo; details: for ED50: Mus musculus
Protocol: (§1) All tests were performed during the light period. Groups of mice, rats and rabbits were injected intravenously (lateral tail vein) over 10 s with each dose of test compound, placed in separate boxes to reduce external stimuli and assessed for the loss of righting reflex. Dosing was performed using mg/kg scheme. A set of dose levels was chosen, and depending on whether the loss of righting reflex was observed, extra doses were introduced to provide data for the loss of righting reflex over a narrow dose range to allow potency calculations. From the percentage of mice, rats and rabbits in each group showing loss of righting reflex for ≥30 s, a probit analysis (SAS Institute) was performed to obtain an HD50 for each compound with 95% confidence limits.
(§2) Immediately following the injection, the mice, rats and rabbits were tested for loss of righting reflex. […] Once a loss was observed, the interval between the loss of righting reflex and the return to righting reflex was recorded. The anesthetized animals recovered righting reflexes spontaneously. To compare the duration of LORR of each compound at equipotent doses, groups of mice, rats and rabbits were injected with each compound at 2× HD50 over 10 s.
(§3) Time to walk was the time required after righting before mice and rabbits walked from the center to the periphery of a 30-cm diameter dise.
(§4) The rotarod test was conducted to evaluate the recovery to the motor coordination. Before the LORR test, mice were trained for 2 consecutive days. Trained mice could maintain their balance on rod for more than 2 mins. After the mice could walk from the center to the periphery of a 30-cm diameter dise, they were put on the rotarod. Mice were classified as behavioral recovery when, on being placed on the rod, they could maintain their balance for 20 s. The time to behavioral recovery was the time required after mice walked from the centre to the periphery of a 30-cm diameter disc before they could maintain their balance on rod for 20 s.

in vivo = details: mouse, in vivo; mice, 95% confidence limits
Protocol: (§5) The LD50 was determined in mice, rats, and rabbits and the TI was calculated as LD50/HD50.

mice [2] = assay: in vivo; details: LD50/HD50
Protocol: as §5

rat [3] = assay type: in vivo; details: for HD50: IV, 95% confidence limits
Protocol: as §1, §2, §3, §4

rat [4] = assay: Therapeutic index (LD50/HD50) in rat; assay type: in vivo
Protocol: as §5

rabbits [5] = assay: Hypnotic potency and recovery after IV bolus in rabbits; assay type: in vivo, rabbit; details: for Duration of LORR / Time to walk: 2× HD50 dose, mean ± SD; for HD50: IV, 95% confidence limits
Protocol: as §1, with “calculations.” for “calculations. From the percentage of mice, rats and rabbits in each group showing loss of righting reflex for ≥30 s, a probit analysis (SAS Institute) was performed to obtain an HD50 for each compound with 95% confidence limits.”
as §2, with “The anesthetized animals recovered righting reflexes spontaneously.” left out
as §3

rabbits [6] = assay: Therapeutic index (LD50/HD50) in rabbits; assay type: in vivo, rabbit
Protocol: as §5

rabbits [7] = assay: Hypnosis in response to IV infusion in rabbits; assay type: in vivo, rabbit; details: for time to walk after infusion: 20-min IV infusion; for duration of LORR after cessation of infusion: 20-min IV infusion at half the HD50 per min after 2× HD50 induction
Protocol: Induction of hypnosis in rabbits was achieved using 2× HD50 dose of test compound, and immediately after induction, infusion via the tail vein was commenced at half the HD50 dosage per min. the infusion rate was maintained for 20 min or 1 h or 3 h later. The depth of hypnosis was monitored by the magnitude of a withdrawal reflex to intermittent paw pinch provided by a pair of forceps.

GABAA receptor = assay: GABAA radioligand binding assay ([3H]EBOB); details: 50 µM compound, 0.5 nM [3H]EBOB, rat frontoparietal cortex
Protocol: All the new compounds were dissolved in 5% DMSO.
Specific binding was determined in the presence of compounds.
Membrane suspensions were thawed and centrifuged in incubation buffer at 10,000×g for 10 min and washed by a similar centrifugation. For displacement studies, membrane suspensions (5 mg original wet wt./ml) were incubated with 0.5 nM [^3H]EBOB ([…], Perkin Elmer Life Sciences, Boston, MA, USA) in the absence or presence of 50 µM of new compounds or reference drug for 2 h at 25°C. Nonspecific binding was determined in the presence of 10 µM Bicuculline. Bicuculline and picrotoxin were frequently used to determine the nonspecific binding when [3H]EBOB as radioligand [17]. Triplicate 1 ml samples were filtered on Whatman GF/B filters under vacuum with a Brandel Harvester and washed with 3×3 ml ice-cold buffer.

[8] = biological target: T1, human GABAA receptor α1, β2 and γ2 (CHO-K1 cells) (Homo sapiens, UniProt P14867+P18507+P47870); assay: cell-based
T1 construct: expressed in transfected cells; host or cells: CHO-K1 cells, stably transfected
T1 sequence (P14867 28-456): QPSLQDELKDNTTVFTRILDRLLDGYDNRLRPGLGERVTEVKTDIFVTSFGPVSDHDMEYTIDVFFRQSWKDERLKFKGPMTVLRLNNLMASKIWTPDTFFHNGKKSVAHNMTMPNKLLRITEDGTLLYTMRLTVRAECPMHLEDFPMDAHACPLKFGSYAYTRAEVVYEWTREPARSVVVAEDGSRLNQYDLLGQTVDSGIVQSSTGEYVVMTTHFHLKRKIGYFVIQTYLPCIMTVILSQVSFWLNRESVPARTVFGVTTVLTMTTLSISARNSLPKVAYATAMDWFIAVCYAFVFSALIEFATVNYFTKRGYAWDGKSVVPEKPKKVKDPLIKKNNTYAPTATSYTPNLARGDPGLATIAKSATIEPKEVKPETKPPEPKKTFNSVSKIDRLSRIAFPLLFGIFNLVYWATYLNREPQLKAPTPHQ
T1 sequence (P47870 25-512 limits assumed): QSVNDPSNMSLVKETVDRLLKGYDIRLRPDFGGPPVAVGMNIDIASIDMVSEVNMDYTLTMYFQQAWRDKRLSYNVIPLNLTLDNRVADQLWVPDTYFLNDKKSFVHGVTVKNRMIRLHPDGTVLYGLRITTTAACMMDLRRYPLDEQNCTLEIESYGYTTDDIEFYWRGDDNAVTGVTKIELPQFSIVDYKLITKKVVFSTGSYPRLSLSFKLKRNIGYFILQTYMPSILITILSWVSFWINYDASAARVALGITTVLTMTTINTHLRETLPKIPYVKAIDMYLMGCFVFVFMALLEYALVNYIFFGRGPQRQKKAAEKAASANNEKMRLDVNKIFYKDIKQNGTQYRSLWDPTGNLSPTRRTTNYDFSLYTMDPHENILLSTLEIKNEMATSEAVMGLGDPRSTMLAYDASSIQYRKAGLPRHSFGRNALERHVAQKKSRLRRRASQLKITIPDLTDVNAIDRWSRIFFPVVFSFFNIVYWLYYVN
T1 sequence (P18507 40-475): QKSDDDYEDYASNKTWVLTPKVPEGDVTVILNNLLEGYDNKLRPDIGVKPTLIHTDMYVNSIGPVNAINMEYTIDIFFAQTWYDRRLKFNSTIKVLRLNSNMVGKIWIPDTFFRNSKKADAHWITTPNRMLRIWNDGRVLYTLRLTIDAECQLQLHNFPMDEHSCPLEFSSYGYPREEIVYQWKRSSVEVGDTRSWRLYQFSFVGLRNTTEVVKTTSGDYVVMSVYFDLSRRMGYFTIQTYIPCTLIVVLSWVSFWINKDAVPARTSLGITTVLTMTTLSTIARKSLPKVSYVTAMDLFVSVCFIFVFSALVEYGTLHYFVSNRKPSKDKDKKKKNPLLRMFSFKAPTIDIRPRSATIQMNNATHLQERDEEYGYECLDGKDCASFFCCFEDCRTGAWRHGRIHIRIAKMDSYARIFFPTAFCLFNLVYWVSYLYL
Protocol: Chinese hamster ovary (CHO)-K1 cells transfected stably with human GABAA receptor α1, β2 and γ2 subunit cDNAs were used. The cells were plated onto collagen-coated 35-mm cell culture dishes at low density for 1–7 days before recording. Test solutions were prepared in the extracellular solution on the day the patch-clamp assay was performed. The intracellular solution consisted of 22 mM KCl, 110 mM K-aspartate, 8 mM NaCl, 1 mM MgCl2, 1 mM CaCl2, 10 mM ethylene glycol tetraacetic acid, 5 mM Na2ATP, 10 mM hydroxyethyl piperazineethanesulfonic acid (HEPES) (adjusted to pH 7.2 using KOH), while the extracellular solution contained 145 mM NaCl, 4 mM KCl, 2 mM CaCl2, 2 mM MgCl2, 10 mM HEPES (adjusted to pH 7.4 using NaOH). The assay was performed at room temperature. Cells were maintained at −70 mV and the potentiation effect was assessed by co-application of the test compound with EC20 of muscimol after the cell was pre-incubated with the test compound for 45 s. GABA EC20 measured individually in each cell. The amplitude of the Cl− current in response to muscimol and/or test compound was determined. The response to the co-application of the test compound and muscimol was normalized to the control muscimol response as a percentage of the control. A potentiation effect was indicated by a value >100% of the control response. EC50 values were calculated using the four parameter logistic equation, where E was the amplitude of the muscimol-induced current in the presence of the anesthetic at concentration [A], EMAX was the amplitude of the response in the presence of a maximally effective concentration of the anesthetic, EC50 was the concentration of anesthetic producing a half-maximal enhancement of the muscimol-induced response and nH was the Hill coefficient. [drawing 1]

[9] = Octanol:water partition coefficient; assay type: physicochemical; details: water buffered with 10 mm Tris (pH 7.4)
Protocol: One mg of each hypnotic was added to 10 ml of water buffered with 10 mm Tris (pH 7.4) and 1 ml of octanol. The mixture was stirred overnight and then centrifuged to fully separate the organic and aqueous phases. The relative hypnotic concentration in each phase (i.e., the partition coefficient) was determined by high-performance liquid chromatography as described for blood.

CCCOC(=O)Cc1ccc(OCC(=O)N(CC)CC)c(OC)c1 [Propanidid]
ED50 (mice [1]; mice, IV over 10 s, 95% confidence limits, read-out: HD50 (the source's name)): 20.9 mg/kg
Time to walk (mice [1]; mice, 2× HD50): 56.3 ± 23.5 s
time to behavioral recovery (mice [1]; mice, 2× HD50, rotarod): 83.9 ± 17.1 s
Duration of LORR (mice [1]; mice, IV 2× HD50, mean ± SD (n = 10)): 89.6 ± 18.2 s
Onset time (mice [1]; mice, IV, mean ± SD (n = 10)): 6.7 ± 0.5 s
LD50 (in vivo): 119 mg/kg
TI (mice [2]): 5.6
Duration of LORR (rat [3]; 2× HD50 dose, mean ± SD): 93.3 ± 16.1 s
Time to walk (rat [3]; 2× HD50 dose, mean ± SD): 58.7 ± 18.8 s
time to behavioral recovery (rat [3]; 2× HD50 dose, mean ± SD): 79.9 ± 34.6 s
HD50 (rat [3]): 8.4 (7.8∼10.4) mg/kg
TI (rat [4]): 9.6
Duration of LORR (rabbits [5]): 265.4 ± 44.2 s
Time to walk (rabbits [5]): 124.5 ± 24.8 s
HD50 (rabbits [5]): 5.1 (4.7∼5.7) mg/kg
TI (rabbits [6]): 14.7
time to walk after infusion (rabbits [7]): 70.2 ± 14.9 s
duration of LORR after cessation of infusion (rabbits [7]): 246.6 ± 65.7 s
GABAA binding (50 µmol) (Mean ± SD), percentage of inhibition (GABAA receptor): 70.2±5.8%
EC50 ([8]; GABAA (α1β2γ2) CHO-K1 cell, patch clamp, read-out: EC50, potentiation of EC20 muscimol evoked chloride currents): 25.2 µM
Octanol:Water Partition (Coefficient ± SD) [9]: 394±40

CC(C)c1cccc(C(C)C)c1O [Propofol]
ED50 (mice [1]; iv, read-out: HD50): 11.9 mg/kg
Time to walk (mice [1]; mouse, in vivo): 76.5 ± 42.5 s
time to behavioral recovery (mice [1]; mouse, in vivo): 242.7 ± 119.2 s
Duration of LORR (mice [1]; mouse, in vivo, iv): 240.9 ± 93.7 s
Onset time (mice [1]; mouse, in vivo, iv): 8.1 ± 1.6 s
LD50 (in vivo): 64.4 mg/kg
HD50 (rat [3]): 5.2 (4.5∼5.7) mg/kg
Duration of LORR (rat [3]; in vivo): 349.3 ± 93.3 s
Time to walk (rat [3]; in vivo): 286.5 ± 86.5 s
time to behavioral recovery (rat [3]; in vivo): 335.8 ± 156.9 s
TI (rat [4]): 5.9
Duration of LORR (rabbits [5]): 326.6 ± 48.3 s
Time to walk (rabbits [5]): 425.3 ± 162.3 s
HD50 (rabbits [5]): 3.2 (2.3∼4.2) mg/kg
time to walk after infusion (rabbits [7]): 167.9 ± 60.8 s
duration of LORR after cessation of infusion (rabbits [7]): 485.6 ± 164.1 s
EC50 [8]: 2.4 µM
